Test results as given in article PMC3412620 (PLoS ONE, 2012).

Tests used:
[1] = target: T1, human pyridoxal kinase (hPL kinase) (Homo sapiens, UniProt O00764); test: crystal structure ([…] Å, ternary with ginkgotoxin); format: binding
T1 construct: gene PDXK; wild-type hPL kinase
T1 sequence (O00764 1-312): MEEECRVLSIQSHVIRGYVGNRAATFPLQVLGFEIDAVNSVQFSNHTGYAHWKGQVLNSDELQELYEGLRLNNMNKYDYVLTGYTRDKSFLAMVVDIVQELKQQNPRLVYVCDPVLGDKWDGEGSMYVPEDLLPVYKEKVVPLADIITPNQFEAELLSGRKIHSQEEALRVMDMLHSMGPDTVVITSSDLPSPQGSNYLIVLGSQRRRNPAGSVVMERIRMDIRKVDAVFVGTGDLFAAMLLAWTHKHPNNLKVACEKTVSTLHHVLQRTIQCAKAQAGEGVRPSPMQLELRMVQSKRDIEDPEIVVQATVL

[2] = target: T1, human pyridoxal kinase (hPL kinase); test: crystal structure ([…] Å), […] occupancy; density broken between ring and phosphate; format: binding
[3] = target: T1, human pyridoxal kinase (hPL kinase); test: percentage inhibition at […], spectrophotometric assay; format: biochemical
[4] = target: T1, human pyridoxal kinase (hPL kinase); test: spectrophotometric kinetic assay (PL to PLP, […] nm); format: biochemical
[5] = substrate: Cc1ncc(CO)c(C=O)c1O; test: spectrophotometric steady-state kinetics with purified enzyme (Km); format: biochemical, Homo sapiens; details: MgATP PL substrate site

In the case of `Nc1ncnc2c1ncn2[C@@H]1O[C@H](COP(=O)(O)OP(=O)(O)OP(=O)(O)O)[C@@H](O)[C@H]1O` [ATP], the “crystal structure (2.15 Å, ternary with ginkgotoxin)” value [1] is reported as “We observed bound MgATP and ginkgotoxin (Fig. 4A–C) at both subunit active sites”.

In the case of `COCc1c(COP(=O)(O)O)cnc(C)c1O` [GIP, ginkgotoxin phosphate], the “crystal structure (2.15 Å), 40% occupancy; density broken between ring and phosp” value [2] is reported as “We also observed what appears to be the phosphorylated product of ginkgotoxin bound at the PL sites”.

`Cn1c(=O)c2c(ncn2C)n(C)c1=O` [caffeine] gave an inhibition at 100 µM [3] of 21%.

Work on `CCCn1c(=O)[nH]c(=O)c2[nH]cnc21` [enprofylline] yielded a Ki [4] of 228 µM.

In the case of `Nc1nnc(-c2cccc(Cl)c2Cl)c(N)n1` [lamotrigine], the Ki [4] is reported as 56 µM.

In the case of `Cn1cnc2c1c(=O)[nH]c(=O)n2C` [theobromine], the inhibition at 100 µM [3] is reported as 22%.

B1: human pyridoxal kinase (hPL kinase) (Homo sapiens) (protein)
chain: T1 sequence (O00764 1-312)
notes: wild-type hPL kinase
Molecule B1 has a Km [5] of 58 µM.
